In one experiment the test system is RXRα-LBD/F439A. The experiment in a line: Non-denaturing gel electrophoresis, F439A mutant. In kind it is biochemical, human. To be noted: K-80003 (20 μM), 3 h at 4 °C. The method, then:
(§1) The human RXRα LBD (residues Thr223 to Thr462) cloned as an N-terminal histidine-tagged fusion protein in pET15b expression vector was expressed in Escherichia coli BL21 strain (Stratagene). After sonication, cell extract was incubated with the His60 Ni Superflow resin, and His-tagged RXRα-LBD-resin complexes were washed, eluted and concentrated to 5 mg ml^−1 for subsequent trails. For crystallization experiment, bovine thrombin (Sigma) was used to cleave the His tag from the purified His-tagged RXRα-LBD. The resulting His tag was removed on the Resource-Q column (GE) using 0.1–1 M NaCl gradient and the Tris-Cl pH 8 buffer. RXRα-LDB was further purified using gel filtration on a Superdex 200 2660 column (GE) pre-equilibrated with the 75 mM NaCl, 20 mM Tris-Cl buffer (pH 8).

The subject of experiment [1] is tRXRα. The experiment in a line: BS3 crosslinking, transfected tRXRα. The format is cell-based. The method, then:
(§2) Cell lysates were then prepared and incubated with bis[sulfosuccinimidyl] suberate (BS3, Pierce) dissolved in dimethyl sulfoxide to a final concentration of 1 mM. The reactions were stopped with protein gel loading buffer. Samples were resolved by SDS/PAGE in 8% acrylamide gels and protein bands were visualized by western blotting.

Another experiment relates to RXRα. The experiment in a line: BS3 crosslinking, transfected full-length RXRα. The following applies: HepG2 cells; K-80003 (5 × 10^−6 M) for 6 h; BS3 1 mM; western blotting. The format is cell-based. On the procedure: as §2
For experiment [2], the system named is p85α / tRXRα/F313A interaction. The experiment in a line: coIP, p85α with tRXRα/F313A. In kind it is cell-based. The following applies: HEK293T cells; K-80003 (5 × 10^−6 M) for 6 h; coIP anti-HA.
Experimental: For coIP assay[29], HEK293T cells grown in 10 cm dishes were transfected with various plasmids. Cells were lysed in 1 ml of lysis buffer (20 mM Tris (pH 7.5), 150 mM NaCl, 1% Triton X-100, 1 mM EDTA, 30 mM NaF, 2 mM sodium pyrophosphate) with a cocktail of proteinase inhibitors (Roche). Lysates were incubated with the appropriate antibody for 12 h at 4 °C and subsequently incubated with protein A-Sepharose beads for 1 h. The immunoprecipitates were collected and washed three times with lysis buffer. The protein–antibody complexes recovered on beads were subjected to immunoblotting using appropriate antibodies after separation by SDS-PAGE. Input represents 5% of cell lysates used for coIP assays.
Another experiment has as its system MCF-7/tRXRα tumour. The experiment in a line: MCF-7/tRXRα xenograft in nude mice, tumour growth. The format is in vivo. The following applies: K-80003 20 mg kg^−1 i.p. daily for 12 days, n=6 in each group. The method, then:
For nude mice xenograft study, Myc-RXRα and Myc-tRXRα cloned into pcdna3.0 vector were stably transfected into MCF-7 cells, and the resulting stable clones and control clone (2 × 10^6 cells in 100 μl) were injected subcutaneously into nude mice (BALB/c, SPF grade, 16–18 g, 4–5-week old). For drug treatment, mice were intraperitoneally injected (i.p.) daily with K-80003 (20 mg kg^−1) diluted in Tween-80 or vehicle (tween-80). Body weight and tumour size were measured every 2 days. Mice were killed after 12-day drug treatment and the tumours removed for various assessments. For MMTV-PyMT transgenic mouse study, 4-week old female mice of a transgenic mouse on the FVB/N genetic background expressing the PyMT oncogene under the control of MMTV LTR promoter[40] were fed with diet containing with or without K-80003 (100 mg kg^−1) for 4 weeks. Estimation of tumour appearance was performed by palpation once every day. Tumour tissues of left thoracic mammary glands were excised after the treatment. Portion of tissues was used to prepare extracts for western blotting, while the rest was fixed in 4% phosphate-buffered paraformaldehyde, and used for immunohistochemical staining using anti-Ki67 antibody and immunostaining using Δ197 anti-RXRα antibody. All experimentations and animal usage were performed and approved by the Animal Care and Use Committee of Xiamen University.

Experiment [3] relates to tRXRα. The experiment in a line: MCF-7/tRXRα xenograft tumours, immunostaining. The format is in vivo. To be noted: nude mice; K-80003 20 mg kg^−1 i.p., 12 days; anti-Myc. The method, then: Cells mounted on glass slides or tumour tissue frozen sections (5-μm-thick) were washed with PBS and fixed in 4% paraformaldehyde (PFA) for 15 min and permeabilized with PBS containing 0.1% Triton X-100 for 15 min. Fixed cells or tumour tissues were blocked with 5 mg ml^−1 BSA in PBS for 30 min at room temperature, followed with incubation with primary antibodies for 3 h and secondary antibodies at room temperature for 1 h and co-stained with 4′6′-diamidino-2-phenylindole (DAPI) to visualize nuclei. The images were taken under an LSM-510 confocal laser scanning microscope system (Carl Zeiss).
For nude mice xenograft study, Myc-RXRα and Myc-tRXRα cloned into pcdna3.0 vector were stably transfected into MCF-7 cells, and the resulting stable clones and control clone (2 × 10^6 cells in 100 μl) were injected subcutaneously into nude mice (BALB/c, SPF grade, 16–18 g, 4–5-week old). For drug treatment, mice were intraperitoneally injected (i.p.) daily with K-80003 (20 mg kg^−1) diluted in Tween-80 or vehicle (tween-80). Body weight and tumour size were measured every 2 days. Mice were killed after 12-day drug treatment and the tumours removed for various assessments. […]

Another experiment has as its target T1, RXRα-LBD (Homo sapiens, UniProt P19793).
T1 construct: The human RXRα LBD (residues Thr223 to Thr462); made in house; host or cells: Escherichia coli BL21
T1 sequence (P19793 223-462): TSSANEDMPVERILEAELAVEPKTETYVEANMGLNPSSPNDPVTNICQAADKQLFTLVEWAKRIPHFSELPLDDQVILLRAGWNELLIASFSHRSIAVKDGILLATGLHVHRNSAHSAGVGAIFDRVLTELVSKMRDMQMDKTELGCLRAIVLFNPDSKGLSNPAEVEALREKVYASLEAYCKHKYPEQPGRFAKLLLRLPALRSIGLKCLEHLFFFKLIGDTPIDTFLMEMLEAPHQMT
The experiment in a line: Crystal structure of RXRα-LBD complex. The format is binding. The following applies: crystal structure at 2.6 Å, PDB 5TBP. On the procedure: as §1
Crystallization conditions were initially determined using the sitting-drop vapor-diffusion method and the crystallization screens Index and PEG-Ion solutions from Hampton Research. Final crystals were obtained by cocrystallizing the protein and the ligand. The protein-ligand complex contained 0.35 mM of RXRα-LBD, 0.5–0.7 mM of a ligand, 1% DMSO, 100 mM NaCl and 20 mM Tris-Cl buffer (pH 7.6). 0.2 μl of the protein-ligand complex was mixed with 0.2 μl of the well solution (20% […] and 0.2 M Na Acetate) and incubated at 20 °C. Crystals appeared in 5–10 days and grew into 0.2 × 0.1 × 0.1 mm prisms. The crystals were flash-cooled in mother liquor containing 1.5 mM of K-80003 and 20% glycerol as a cryoprotectant. Diffraction data was collected from the cryo-cooled crystal (100 K) on an in-house diffractometer (Rigaku X-ray generator with a rotating anode, VariMax optic and R-AXIS HTC detector). Data was processed using the programme iMOSFLM, part of the CCP4 suite. The b-factor of the data set according to the Wilson plot was 60 Å^2.
The crystal structures were determined using the molecular replacement program Phaser[76] with pdb entry 4N8R as an initial model. Coot[77] and the program suite Phenix[78] were used for the model rebuilding and refinement. […]

The test system of the next experiment is p85α / tRXRα interaction. Further details: method as in PMID 20541701. The following applies: cited from earlier work.
The next experiment relates to PI3K signalling. The arrangement: method as in PMID 20541701. To be noted: cited from earlier work.

On to `CC1=C(CC(=O)O)c2cc(F)ccc2/C1=C\c1ccc(C(C)C)cc1` [K-80003], for which the “effect on tetramerization of F439A mutant” value in the experiment with RXRα-LBD/F439A is “impaired the tetramerization of respective mutants by K-80003”. In addition, the “tetramerization of tRXRα with cotransfected RXRα A/B domain” value with tRXRα [1] (HEK293T cells, tRXRα together with RXRα-A/B, K-80003, BS3, one of three similar experiments) is “completely suppressed the effect of K-80003 on promoting tRXRα tetramerization”. Moreover, the “tetramerization of tRXRα” value in the experiment on tRXRα [1] (HepG2 cells, K-80003 (5 × 10^−6 M) for 6 h, BS3 1 mM, western blotting) is “effectively promoted the formation of tRXRα tetramers”. In the experiment on RXRα, the “tetramerization of full-length RXRα” value is reported as “failed to promote the tetramerization of the full-length RXRα”. Further, the “modulation of tRXRα/F313A interaction with p85α” value in [2] was “failed to modulate the interaction of both mutants with p85α”. The “effect on tRXRα-promoted growth of MCF-7 tumour” value in the experiment on MCF-7/tRXRα tumour is on record as “suppressed”. Besides, the “subcellular localization of tRXRα in xenograft tumours” value with tRXRα [3] is “a significant amount of tRXRα was found in the nucleus”. On RXRα-LBD, the binding mode entry is “‘3-pronged’ binding mode” and the “molecules bound per tetramer” value is “six molecules of K-80003-bound per tetramer”. Further, the “molecules bound per interfacial cavity” value on RXRα-LBD (A1/B2 or A2/B1 cavity) was “three molecules per A1/B2 or A2/B1 interfacial cavity”. Also, the “inhibition of tRXRα interaction with p85α” value in the experiment on p85α / tRXRα interaction is “inhibits its interaction with p85α”. Moreover, the “inhibition of activation of PI3K signalling” value in the experiment on PI3K signalling is “inhibits its interaction with p85α and activation of PI3K signalling”.

These data come from PMC5520057, “Modulation of nongenomic activation of PI3K signalling by tetramerization of N-terminally-cleaved RXRα” (Nature Communications, 2017).
